Laboratory results taken from US20230092001A1, “FURANEOL GLYCOSIDE COMPOUND, PHARMACEUTICAL COMPOSITION THEREOF, PREPARATION METHOD THEREFOR, AND APPLICATION THEREOF” (priority 2019, published 2023).

Key:
[1] = tested on: ulcerative colitis model (dextran sodium sulphate); experiment: Effect Example 1: therapeutic effect on ulcerative colitis, dextran sodium sulphate model, injected treatment, 14 days; type: in vivo, C57 mice; conditions: for Average colon length of mice / Average colon weight of mice / Unit colon weight of mice (colon weight/colon length): day 14
Protocol: Thirty 10-week-old male C57 mice, SPF class animal house, temperature 20-26° C., humidity 40%-70%, alternating light-dark periods (12 h/12 h).
(§1) Quarantine-qualified animals with similar weights were selected for the experiment.
Mice in the blank control group were given normal drinking water throughout the experiment. The other 5 groups of mice were given drinking water containing 2% dextran sodium sulphate (DSS) from day 1 to day 5, normal drinking water from day 6 to day 7, drinking water containing 2% dextran sodium sulphate from day 8 to day 12, and normal drinking water from day 13 to day 14. The experiment ended on day 14.
Animals in the blank control group and ulcerative colitis model group were given sterile water intraperitoneally from day 1, once a day; the other 4 groups were administered according to table 1, once a day, until the end of the experiment on day 14. Two hours after the first day of administration, the mice were started to drink water containing dextran sodium sulphate.
(§2) (1) The mice were weighed daily.
(2) Blood samples were collected from the orbital vein on day 14 and stored at −80° C.
(3) On day 14, the mice were sacrificed by cervical vertebra dislocation, the colon was removed and a small amount of fecal was taken from the colon and left as a sample. The colon length and colon weight were measured. A portion of the colon and the fecal sample was stored at −80° C.

[2] = tested on: ulcerative colitis model (dextran sodium sulphate); experiment: Effect Example 3: therapeutic effect on ulcerative colitis, dextran sodium sulphate model, oral gavage, 7 days; type: in vivo, C57 mice; conditions: 40 mg/kg oral gavage
Protocol: Fifty 10-week-old male C57 mice, SPF class animal house, temperature 20-26° C., humidity 40%-70%, alternating light-dark periods (12 h/12 h).
as §1
Mice in the blank control group were given normal drinking water throughout the experiment. The other 9 groups of mice were given drinking water containing 2% dextran sodium sulphate from day 1 to day 7. All groups were administered by oral gavage once a day according to table 10, until the end of the experiment.
as §2
(2) Blood samples were collected from the orbital vein on day 7 and stored at −80° C.
(3) On day 7, the mice were sacrificed by cervical vertebra dislocation, the colon was removed and a small amount of fecal was taken from the colon and left as a sample. The colon length and colon weight were measured. A portion of the colon and the fecal sample was stored at −80° C.

[3] = Day 10, high-dose treatment group 40 mg/kg intraperitoneal injection
[4] = Day 10, low-dose treatment group 10 mg/kg intraperitoneal injection
[5] = Day 10, middle-dose treatment group 20 mg/kg intraperitoneal injection
[6] = Day 11, high-dose treatment group 40 mg/kg intraperitoneal injection
[7] = Day 11, low-dose treatment group 10 mg/kg intraperitoneal injection
[8] = Day 11, middle-dose treatment group 20 mg/kg intraperitoneal injection
[9] = Day 12, high-dose treatment group 40 mg/kg intraperitoneal injection
[10] = Day 12, low-dose treatment group 10 mg/kg intraperitoneal injection
[11] = Day 12, middle-dose treatment group 20 mg/kg intraperitoneal injection
[12] = Day 13, high-dose treatment group 40 mg/kg intraperitoneal injection
[13] = Day 13, low-dose treatment group 10 mg/kg intraperitoneal injection
[14] = Day 13, middle-dose treatment group 20 mg/kg intraperitoneal injection
[15] = Day 14, high-dose treatment group 40 mg/kg intraperitoneal injection
[16] = Day 14, low-dose treatment group 10 mg/kg intraperitoneal injection
[17] = Day 14, middle-dose treatment group 20 mg/kg intraperitoneal injection
[18] = high-dose treatment group 40 mg/kg intraperitoneal injection
[19] = low-dose treatment group 10 mg/kg intraperitoneal injection
[20] = middle-dose treatment group 20 mg/kg intraperitoneal injection
[21] = intraperitoneal injection 10, 20, 40 mg/kg, vs ulcerative colitis model group

SMILES: CC(C)=C1OC(C)=C(O[C@@H]2O[C@H](CO)[C@@H](O)[C@H](O)[C@H]2O)C1=O [Compound I-1, 4-O-β-D-glucosyl-5-methyl-2-(1-methylethylidene)-3(2H)-furanone]
- Rate of change in weight of mice ([1]; Day 9, middle-dose treatment group 20 mg/kg intraperitoneal injection): 93.2%
- Average weight of mice [1, 3]: 25.6 g
- Rate of change in weight of mice [1, 3]: 92.7%
- Average weight of mice [1, 4]: 24.9 g
- Rate of change in weight of mice [1, 4]: 89.1%
- Average weight of mice [1, 5]: 25.6 g
- Rate of change in weight of mice [1, 5]: 92.2%
- Average weight of mice [1, 6]: 25.5 g
- Rate of change in weight of mice [1, 6]: 92.2%
- Average weight of mice [1, 7]: 24.4 g
- Rate of change in weight of mice [1, 7]: 87.5%
- Average weight of mice [1, 8]: 25.3 g
- Rate of change in weight of mice [1, 8]: 91.1%
- Average weight of mice [1, 9]: 25.4 g
- Rate of change in weight of mice [1, 9]: 92.0%
- Average weight of mice [1, 10]: 24.1 g
- Rate of change in weight of mice [1, 10]: 86.4%
- Average weight of mice [1, 11]: 25.0 g
- Rate of change in weight of mice [1, 11]: 90.0%
- Average weight of mice [1, 12]: 25.3 g
- Rate of change in weight of mice [1, 12]: 91.5%
- Average weight of mice [1, 13]: 23.8 g
- Rate of change in weight of mice [1, 13]: 85.3%
- Average weight of mice [1, 14]: 24.8 g
- Rate of change in weight of mice [1, 14]: 89.2%
- Average weight of mice [1, 15]: 25.2 g
- Rate of change in weight of mice [1, 15]: 91.4%
- Average weight of mice [1, 16]: 23.7 g
- Rate of change in weight of mice [1, 16]: 84.9%
- Average weight of mice [1, 17]: 24.7 g
- Rate of change in weight of mice [1, 17]: 88.8%
- Average colon length of mice [1, 18]: 6.52 cm
- Average colon weight of mice [1, 18]: 0.2129 g
- Unit colon weight of mice (colon weight/colon length) [1, 18]: 0.0327 g/cm
- Average colon length of mice [1, 19]: 5.46 cm
- Average colon weight of mice [1, 19]: 0.1909 g
- Unit colon weight of mice (colon weight/colon length) [1, 19]: 0.0351 g/cm
- Average colon length of mice [1, 20]: 6.04 cm
- Average colon weight of mice [1, 20]: 0.2115 g
- Unit colon weight of mice (colon weight/colon length) [1, 20]: 0.0351 g/cm
- Colon length compared with the positive control group (in words) ([1]; high-dose treatment group 40 mg/kg intraperitoneal injection vs cyclosporine A 50 mg/kg): even better than the positive control group
- Effect on the length of the colon (in words) [1, 21]: could gradually restore the length of the colon to normal
- Effect on the reduction in the weight of mice (in words) [1, 21]: significant ameliorating effect on the reduction in the weight of mice
- Effect on the unit colon weight (in words) [1, 21]: could significantly improve the unit colon weight
- Effect on the colon length (in words) [2]: can gradually restore the colon length
- Average weight of mice ([2]; Day 1): 21.33 g
- Average weight of mice ([2]; Day 2): 20.97 g
- Average weight of mice ([2]; Day 3): 20.80 g
- Average weight of mice ([2]; Day 4): 20.85 g
- Average weight of mice ([2]; Day 5): 20.53 g
- Average weight of mice ([2]; Day 6): 20.13 g
- Average weight of mice ([2]; Day 7): 19.82 g
- Average colon length of mice ([2]; day 7): 6.2 cm
